Source: ChEMBL document CHEMBL5230103, “Hydroxamic acid hybrids as the potential anticancer agents: An Overview” (Eur J Med Chem, 2020)

Columns and labels:
[1] = Half life in CD1 mouse at 2 mg/kg, iv; type: ADME, organism-based; conditions: in vivo
[2] = Cmax in CD1 mouse at 2 mg/kg, iv; type: ADME, organism-based; design: dose 2 mg/kg, route iv; conditions: in vivo
[3] = AUCinfinity in CD1 mouse at 2 mg/kg, iv; type: ADME, organism-based; design: dose 2 mg/kg, route iv; conditions: in vivo
[4] = Clearance in CD1 mouse at 2 mg/kg, iv; type: ADME, organism-based; conditions: in vivo
Kasumi 1 = assay: Cytotoxicity against human Kasumi 1 cells assessed as inhibition of cell growth by MTT assay; type: functional, cell-based
NB-4 = assay: Cytotoxicity against human NB-4 cells assessed as inhibition of cell growth by MTT assay; type: functional, cell-based
HepG2 [5] = assay: Cytotoxicity against human HepG2 cells assessed as inhibition of cell growth by MTT assay; type: functional, cell-based
HCT-116 [6] = assay: Cytotoxicity against human HCT-116 cells assessed as inhibition of cell growth by MTT assay; type: functional, cell-based
SMMC-7721 = assay: Cytotoxicity against human SMMC-7721 cells assessed as inhibition of cell growth by MTT assay; type: functional, cell-based
NCI-H1299 = assay: Cytotoxicity against human NCI-H1299 cells assessed as inhibition of cell growth by MTT assay; type: functional, cell-based
MCF7 [7] = assay: Cytotoxicity against human MCF7 cells assessed as inhibition of cell growth by MTT assay; type: functional, cell-based
518A2 [8] = assay: Cytotoxicity against human 518A2 cells assessed as inhibition of cell growth by MTT assay; type: functional, cell-based
HT-29 [9] = assay: Cytotoxicity against human HT-29 cells assessed as inhibition of cell growth by MTT assay; type: functional, cell-based
DLD-1 [10] = assay: Cytotoxicity against human DLD-1 cells assessed as inhibition of cell growth by SRB assay; type: functional, cell-based
KB-V1 [11] = assay: Cytotoxicity against human KB-V1 cells assessed as inhibition of cell growth by MTT assay; type: functional, cell-based
518A2 [12] = assay: Potency index, ratio of vorinostat IC50 to test compound IC50 for cytotoxicity against human 518A2 cells; type: functional
HT-29 [13] = assay: Potency index, ratio of vorinostat IC50 to test compound IC50 for cytotoxicity against human HT-29 cells; type: functional
DLD-1 [14] = assay: Potency index, ratio of vorinostat IC50 to test compound IC50 for cytotoxicity against human DLD-1 cells; type: functional
KB-V1 [15] = assay: Potency index, ratio of vorinostat IC50 to test compound IC50 for cytotoxicity against human KB-V1 cells; type: functional
MCF7 [16] = assay: Potency index, ratio of vorinostat IC50 to test compound IC50 for cytotoxicity against human MCF7 cells; type: functional
EA.hy 926 = assay: Potency index, ratio of vorinostat IC50 to test compound IC50 for cytotoxicity against human EA.hy 926 cells; type: functional
[17] = Cytotoxicity against human HDFa cells assessed as inhibition of cell proliferation by MTT assay; type: toxicity, cell-based
[18] = Selectivity index, ratio of IC50 for cytotoxicity against human HDFa cells to IC50 for cytotoxicity against human 518A2 cells; type: toxicity, cell-based; conditions: HDFa cells and 518A2 cells, pooled result: one value given for 6 cell lines, strains, targets or settings, read-out: Ratio IC50
MDA-MB-231 [19] = assay: Cytotoxicity against human MDA-MB-231 cells assessed as inhibition of cell growth by MTS assay; type: functional, cell-based
MCF7 [20] = assay: Cytotoxicity against human MCF7 cells assessed as inhibition of cell growth by MTS assay; type: functional, cell-based
T47D = assay: Cytotoxicity against human T47D cells assessed as inhibition of cell growth by MTS assay; type: functional, cell-based
MDA-MB-231 [21] = assay: animal or person; type: functional, Homo sapiens; conditions: Mus musculus, route po, read-out: TGI
Description: Antitumor activity against human MDA-MB-231 cells xenografted in mouse assessed as tumor growth inhibition at 25 mg/kg, po relative to control

PC-3 [22] = assay: Cytotoxicity against human PC-3 cells assessed as inhibition of cell growth by MTT assay; type: functional, cell-based
Histone deacetylase 2 = Histone deacetylase 2 (Homo sapiens, UniProt Q92769); assay: Inhibition of HDAC2 (unknown origin)
SW-620 [23] = assay: Cytotoxicity against human SW620 cells assessed as inhibition of cell growth by MTT assay; type: functional, cell-based
SW-620 [24] = assay: Potency index, ratio of vorinostat IC50 to test compound IC50 for cytotoxicity against human SW620 cells assessed as inhibition of cell growth by MTT assay; type: functional
PC-3 [25] = assay: Potency index, ratio of vorinostat IC50 to test compound IC50 for cytotoxicity against human PC-3 cells assessed as inhibition of cell growth by MTT assay; type: functional
ASPC1 [26] = assay: Potency index, ratio of vorinostat IC50 to test compound IC50 for cytotoxicity against human ASPC1 cells assessed as inhibition of cell growth by MTT assay; type: functional
MCF7 [27] = assay: Cytotoxicity against human MCF7 cells assessed as inhibition of cell growth by SRB assay; type: functional, cell-based
Histone deacetylase = assay: Inhibition of HDAC (unknown origin); type: protein assay, Homo sapiens
PC-3 [28] = assay: Cytotoxicity against human PC-3 cells assessed as inhibition of cell growth by SRB assay; type: functional, cell-based
MV4-11 = assay: Cytotoxicity against human MV4-11 cells assessed as inhibition of cell growth by SRB assay; type: functional, cell-based
K562 = assay: Cytotoxicity against human K562 cells assessed as inhibition of cell growth by SRB assay; type: functional, cell-based
MOLT-4 = assay: Cytotoxicity against human MOLT-4 cells assessed as inhibition of cell growth by SRB assay; type: functional, cell-based
Raji = assay: Cytotoxicity against human Raji cells assessed as inhibition of cell growth by SRB assay; type: functional, cell-based
Ramos = assay: Cytotoxicity against human Ramos cells assessed as inhibition of cell growth by SRB assay; type: functional, cell-based
SU-DHL-6 = assay: Cytotoxicity against human SU-DHL-6 cells assessed as inhibition of cell growth by SRB assay; type: functional, cell-based
HepG2 [29] = assay: Cytotoxicity against human HepG2 cells assessed as inhibition of cell growth by SRB assay; type: functional, cell-based
Huh-7 = assay: Cytotoxicity against human Huh-7 cells assessed as inhibition of cell growth by SRB assay; type: functional, cell-based
PLC-PRF-5 = assay: Cytotoxicity against human PLC-PRF-5 cells assessed as inhibition of cell growth by SRB assay; type: functional, cell-based
SK-HEP1 = assay: Cytotoxicity against human SK-HEP1 cells assessed as inhibition of cell growth by SRB assay; type: functional, cell-based
SNU-387 = assay: Cytotoxicity against human SNU-387 cells assessed as inhibition of cell growth by SRB assay; type: functional, cell-based
SNU-398 = assay: Cytotoxicity against human SNU-398 cells assessed as inhibition of cell growth by SRB assay; type: functional, cell-based
[30] = Toxicity in BALB/c mouse assessed as maximum tolerated dose; conditions: in vivo
[31] = Oral bioavailability in BALB/c mouse at 200 mg/kg; type: ADME, organism-based; conditions: in vivo
Histone deacetylase 3 = Histone deacetylase 3 (Homo sapiens, UniProt O15379); assay: Inhibition of HDAC3 (unknown origin)
Histone deacetylase 1 = Histone deacetylase 1 (Homo sapiens, UniProt Q13547); assay: Inhibition of HDAC1 (unknown origin)
[32] = biological target: T1, Protein deacetylase HDAC6 (Homo sapiens, UniProt Q9UBN7); assay: Inhibition of HDAC6 (unknown origin)
T1 sequence (Q9UBN7 whole entry): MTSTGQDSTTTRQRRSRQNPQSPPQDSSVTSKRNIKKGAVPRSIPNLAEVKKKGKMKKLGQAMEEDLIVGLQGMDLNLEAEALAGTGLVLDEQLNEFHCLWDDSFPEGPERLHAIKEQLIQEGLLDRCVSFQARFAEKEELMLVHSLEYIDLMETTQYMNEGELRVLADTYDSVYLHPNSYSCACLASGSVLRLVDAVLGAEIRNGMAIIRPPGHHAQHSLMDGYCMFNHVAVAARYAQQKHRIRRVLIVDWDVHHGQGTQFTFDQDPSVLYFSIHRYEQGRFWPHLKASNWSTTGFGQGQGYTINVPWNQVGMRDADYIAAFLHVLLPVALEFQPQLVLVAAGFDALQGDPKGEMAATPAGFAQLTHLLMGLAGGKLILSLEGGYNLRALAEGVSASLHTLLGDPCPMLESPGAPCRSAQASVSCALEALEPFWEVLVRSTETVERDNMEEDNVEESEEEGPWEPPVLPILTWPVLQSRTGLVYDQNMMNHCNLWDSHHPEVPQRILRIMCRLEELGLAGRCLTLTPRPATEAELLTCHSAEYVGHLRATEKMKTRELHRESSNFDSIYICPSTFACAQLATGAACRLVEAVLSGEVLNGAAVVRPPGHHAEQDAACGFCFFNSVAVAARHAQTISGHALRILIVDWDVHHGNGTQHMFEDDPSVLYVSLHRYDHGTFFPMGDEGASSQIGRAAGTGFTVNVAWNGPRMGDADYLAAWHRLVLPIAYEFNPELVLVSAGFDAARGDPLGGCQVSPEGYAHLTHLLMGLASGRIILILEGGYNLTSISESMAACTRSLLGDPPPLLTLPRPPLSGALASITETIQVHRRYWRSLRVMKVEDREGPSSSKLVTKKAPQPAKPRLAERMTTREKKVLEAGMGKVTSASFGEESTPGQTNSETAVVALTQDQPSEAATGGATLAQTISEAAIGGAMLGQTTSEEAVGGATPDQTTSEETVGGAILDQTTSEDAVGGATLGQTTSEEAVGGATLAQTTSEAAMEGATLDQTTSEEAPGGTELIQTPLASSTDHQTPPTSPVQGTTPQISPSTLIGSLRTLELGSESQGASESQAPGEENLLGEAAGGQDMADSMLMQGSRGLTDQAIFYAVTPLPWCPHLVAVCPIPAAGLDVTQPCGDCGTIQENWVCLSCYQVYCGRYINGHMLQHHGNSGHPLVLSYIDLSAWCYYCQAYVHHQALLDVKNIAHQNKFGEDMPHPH

A549 = assay: Cytotoxicity against human A549 cells assessed as inhibition of cell growth by SRB assay; type: functional
HCT-116 [33] = assay: Cytotoxicity against human HCT-116 cells assessed as inhibition of cell growth by SRB assay; type: functional, cell-based
MDA-MB-231 [34] = assay: Cytotoxicity against human MDA-MB-231 cells assessed as inhibition of cell growth by SRB assay; type: functional, cell-based
ASPC1 [35] = assay: Cytotoxicity against human ASPC1 cells assessed as inhibition of cell growth by SRB assay; type: functional, cell-based
HCT-116 [36] = assay: Antitumor activity against human HCT-116 cells xenografted in mouse assessed as tumor growth inhibition at 15 mg/kg, iv relative to control; type: functional; conditions: read-out: TGI
ASPC1 [37] = assay: Cytotoxicity against human ASPC1 cells assessed as inhibition of cell growth by MTT assay; type: functional, cell-based

Chain of Histone deacetylase 2 (Q92769 whole entry): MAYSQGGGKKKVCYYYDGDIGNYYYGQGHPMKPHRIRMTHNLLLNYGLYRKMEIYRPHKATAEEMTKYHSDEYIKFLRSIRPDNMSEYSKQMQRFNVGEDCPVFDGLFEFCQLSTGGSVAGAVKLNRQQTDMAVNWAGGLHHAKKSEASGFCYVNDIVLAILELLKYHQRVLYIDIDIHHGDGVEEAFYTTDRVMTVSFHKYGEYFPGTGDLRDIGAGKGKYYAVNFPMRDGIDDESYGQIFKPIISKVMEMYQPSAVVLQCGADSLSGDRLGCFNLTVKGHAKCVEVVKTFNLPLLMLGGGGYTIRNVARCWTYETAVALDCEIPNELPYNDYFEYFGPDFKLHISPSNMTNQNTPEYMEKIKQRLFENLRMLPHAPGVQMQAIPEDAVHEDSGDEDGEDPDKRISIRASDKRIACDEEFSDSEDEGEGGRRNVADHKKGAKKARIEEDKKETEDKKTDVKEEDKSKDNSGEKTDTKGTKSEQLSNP
Chain of Histone deacetylase 3 (O15379 whole entry): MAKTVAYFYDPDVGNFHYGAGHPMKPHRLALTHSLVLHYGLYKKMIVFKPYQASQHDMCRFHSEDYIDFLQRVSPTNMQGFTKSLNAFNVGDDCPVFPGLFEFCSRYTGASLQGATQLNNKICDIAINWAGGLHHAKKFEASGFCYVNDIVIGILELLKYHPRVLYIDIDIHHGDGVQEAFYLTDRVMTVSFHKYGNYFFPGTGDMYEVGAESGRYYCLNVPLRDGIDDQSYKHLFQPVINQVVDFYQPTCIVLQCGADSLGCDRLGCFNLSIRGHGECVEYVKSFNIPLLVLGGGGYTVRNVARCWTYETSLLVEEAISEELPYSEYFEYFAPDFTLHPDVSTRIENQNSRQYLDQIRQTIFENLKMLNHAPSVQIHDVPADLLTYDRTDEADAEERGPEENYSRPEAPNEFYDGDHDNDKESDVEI
Chain of Histone deacetylase 1 (Q13547 whole entry): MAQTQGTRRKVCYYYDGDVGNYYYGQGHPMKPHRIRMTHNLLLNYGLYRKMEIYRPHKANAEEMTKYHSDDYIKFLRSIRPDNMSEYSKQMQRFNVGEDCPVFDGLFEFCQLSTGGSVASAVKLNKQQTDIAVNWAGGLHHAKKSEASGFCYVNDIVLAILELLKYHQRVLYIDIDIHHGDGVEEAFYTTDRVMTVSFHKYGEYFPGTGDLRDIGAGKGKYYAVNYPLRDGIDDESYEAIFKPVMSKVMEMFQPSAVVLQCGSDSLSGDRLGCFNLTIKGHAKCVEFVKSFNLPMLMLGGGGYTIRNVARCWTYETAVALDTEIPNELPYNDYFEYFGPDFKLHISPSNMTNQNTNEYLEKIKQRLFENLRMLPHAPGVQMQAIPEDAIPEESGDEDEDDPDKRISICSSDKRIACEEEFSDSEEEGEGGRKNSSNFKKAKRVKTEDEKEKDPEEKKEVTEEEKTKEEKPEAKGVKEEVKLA

Compound: O=C(NO)C(c1ccccc1)c1c(-c2ccc3ccccc3c2)[nH]c2ccccc12 (stereo not given)
- half-life [1]: 1.65 h
- Cmax [2]: 2350 ng/mL
- AUC(0-inf) [3]: 1090 ng·h/mL
- clearance [4]: 30.7 mL/min/kg

Compound: Cn1c(CCCCCCC(=O)NO)nc2cc(N(CCCl)CCCl)ccc21 [TINOSTAMUSTINE]
- IC50 (Kasumi 1): 820 nM
- IC50 (NB-4): 900 nM

Compound: COc1ccc(-c2nc(C(=O)N(CCN(C)C)Cc3ccc(C(=O)NO)cc3)cc3c2[nH]c2ccccc23)cc1
- IC50 (HepG2 [5]): 1600 nM
- IC50 (HCT-116 [6]): 1600 nM
- IC50 (SMMC-7721): 1600 nM
- IC50 (NCI-H1299): 1600 nM

Compound: COc1ccc(-c2ocnc2-c2cc(Br)c(OC)c(OC)c2)cc1OCCCC(=O)NO
- IC50 (MCF7 [7]): 18 nM
- IC50 (518A2 [8]): 18 nM
- IC50 (HT-29 [9]): 18 nM
- IC50 (DLD-1 [10]): 18 nM
- IC50 (KB-V1 [11]): 18 nM
- Ratio IC50 (518A2 [12]): 1.2
- Ratio IC50 (HT-29 [13]): 1.2
- Ratio IC50 (DLD-1 [14]): 1.2
- Ratio IC50 (KB-V1 [15]): 1.2
- Ratio IC50 (MCF7 [16]): 1.2
- Ratio IC50 (EA.hy 926): 1.2
- IC50 [17]: 23900 nM
- selectivity ratio [18]: 8.5

Compound: CCCCc1nc2cc(/C=C/C(=O)NO)ccc2n1CCN(CC)CC [PRACINOSTAT]
- IC50 (MDA-MB-231 [19]): 5340 nM
- IC50 (MCF7 [20]): 5340 nM
- IC50 (T47D): 5340 nM
- inhibition in vivo at 25 mg/kg (MDA-MB-231 [21]): 50%

Compound: Cc1ccc2c(c1)/C(=N\O)C(=O)N2CCCC(=O)NO
- IC50 (PC-3 [22]): 490 nM
- IC50 (Histone deacetylase 2): 910 nM
- IC50 (SW-620 [23]): 490 nM
- Ratio IC50 (SW-620 [24]): 4.3
- Ratio IC50 (PC-3 [25]): 4.3
- Ratio IC50 (ASPC1 [26]): 4.3

Compound: CC(C)n1cnc2c(-c3cccc(OCCCCC(=O)NO)c3)nc(N3CCOCC3)nc21
- IC50 (MCF7 [27]): 160 nM
- IC50 (Histone deacetylase): 35 nM
- IC50 (PC-3 [28]): 160 nM
- IC50 (MV4-11): 160 nM
- IC50 (K562): 160 nM
- IC50 (MOLT-4): 160 nM
- IC50 (Raji): 160 nM
- IC50 (Ramos): 160 nM
- IC50 (SU-DHL-6): 160 nM
- IC50 (HepG2 [29]): 160 nM
- IC50 (Huh-7): 160 nM
- IC50 (PLC-PRF-5): 160 nM
- IC50 (SK-HEP1): 160 nM
- IC50 (SNU-387): 160 nM
- IC50 (SNU-398): 160 nM
- MTD [30]: 200 mg/kg
- bioavailability [31]: 62%

Compound: Cc1[nH]c2ccccc2c1CCNS(=O)(=O)c1ccc(/C=C/C(=O)NO)cc1
- IC50 (Histone deacetylase 3): 5.13 nM
- IC50 (Histone deacetylase 1): 5.13 nM
- IC50 (Histone deacetylase 2): 5.13 nM
- IC50 [32]: 5.13 nM
- GI50 (A549): 29 nM
- IC50 (HCT-116 [33]): 29 nM
- IC50 (MDA-MB-231 [34]): 29 nM
- IC50 (ASPC1 [35]): 29 nM
- inhibition in vivo at 15 mg/kg (HCT-116 [36]): 50.7%
- IC50 (ASPC1 [37]): 490 nM
